According to patent US20250049970A1, “DLL3 TARGETING PEPTIDES AND CONSTRUCTS THEREOF” (MARIANA ONCOLOGY INC., priority 2023, published 2025):
Values joined by “and” are separate entries in the source; they are usually repeats but may differ in a detail not shown here. Identical values can stand only once. Values belong to the molecule of their own block, whether it stands above or below them. *1 amine or outer side, *2 acyl side, *3 side chain or, on linkers, in order; H or OH if unused. Where a SMILES comes first, the peptide text is derived from it. Bridges are numbered along the chain shown (N, C = ends). [ ]: non-standard residue; d: D form. The star is where a group is joined. Ala(1-CH2CO2H-4-piperidyl) = N[C@@H](CC1CCN(CC(=O)O)CC1)C(=O)O; Ala(piperidin-4-yl) = O=C([C@H](CC1CCN([*:3])CC1)N[*:1])[*:2]; DOTA = O=C(O)CN1CCN(CC(=O)O)CCN(CC(=O)*)CCN(CC(=O)O)CC1; 2Nal = N[C@@H](Cc1ccc2ccccc2c1)C(=O)O; NMetBuAla = CN[C@@H](CC(C)(C)C)C(=O)O; tBuAla = CC(C)(C)C[C@H](N)C(=O)O; Cha = N[C@@H](CC1CCCCC1)C(=O)O; NMeNle = CCCC[C@H](NC)C(=O)O; Tle = CC(C)(C)[C@H](N)C(=O)O; CH2 = C([*:1])[*:2]

What was measured:
DLL3 = molecular target: T1, DLL3 (Homo sapiens, UniProt Q9NYJ7); test: SPR KD, biotinylated human DLL3 on streptavidin chip (Table 8); parameters: biotin (biotinylated); conditions: biotinylated human DLL3 on streptavidin sensor chip, 25° C., 1:1 binding model; read-out: SPR KD
T1 sequence (Q9NYJ7 27-618): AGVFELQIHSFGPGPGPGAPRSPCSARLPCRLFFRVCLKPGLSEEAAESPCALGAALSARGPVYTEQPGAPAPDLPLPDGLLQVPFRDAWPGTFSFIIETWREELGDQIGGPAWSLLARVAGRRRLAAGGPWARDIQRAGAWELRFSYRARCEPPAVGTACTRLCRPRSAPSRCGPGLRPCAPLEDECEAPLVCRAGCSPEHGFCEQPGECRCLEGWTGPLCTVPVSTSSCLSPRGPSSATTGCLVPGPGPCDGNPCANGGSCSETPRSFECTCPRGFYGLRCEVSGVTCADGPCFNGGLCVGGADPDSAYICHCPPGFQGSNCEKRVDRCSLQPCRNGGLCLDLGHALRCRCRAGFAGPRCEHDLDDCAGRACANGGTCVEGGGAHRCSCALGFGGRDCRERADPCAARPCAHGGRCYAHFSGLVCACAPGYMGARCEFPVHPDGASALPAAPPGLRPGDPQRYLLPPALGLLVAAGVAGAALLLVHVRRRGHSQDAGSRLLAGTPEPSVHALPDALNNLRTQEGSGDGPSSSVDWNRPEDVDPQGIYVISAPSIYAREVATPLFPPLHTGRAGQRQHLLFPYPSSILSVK
Description: Biotinylated target ligand human DLL3 was immobilized on a streptavidin sensor chip. A reference surface was set up for nonspecific binding and refractive index changes. […] Sensorgram curves were fitted with 1:1 binding model, and affinity and kinetic parameters were obtained using Biacore Insight evaluation 4.0. software.

CT26.DLL3 cells [1] = test: Cell binding (total uptake) of [177Lu]Lu-labeled peptide, CT26.DLL3 cells; format: cell-based; conditions: 1 h, 37° C.
How it was run: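 [177Lu]Lu-labelled peptide was prepared at pH ~5 and 80 °C, with purity checked by RP-HPLC, then formulated in 1% PBSA. CT26.DLL3 cells (5-25 million per condition) were incubated with 0.8 μCi for 1 h at 37 °C. After cold PBS/BSA washes, bound and unbound fractions were gamma-counted and uptake was reported as a percentage band.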

SHP-77 cells [2] = test: Cell binding (total uptake) of [177Lu]Lu-labeled peptide, SHP-77 cells; format: cell-based; conditions: 1 h, 37° C.
Procedure: (§1) [^177Lu]LuCl3 was received from venders in HCl solution. For every mCi of [^177Lu]LuCl3 added to the reaction vial (1.5 mL Eppendorf vial), ammonium acetate buffer (0.2 M, pH 4.9, 100 μL, containing 1% w/v ascorbic acid and 6% v/v ethanol) and peptide conjugate (1 nmol; also referred to herein as “chelator-peptides”) was added. The pH of the solution was determined to be approximately 5 by using pH strips. The reaction vial was incubated at 80° C., 700 RPM for 17-20 minutes. A sample from the reaction was analyzed by RP-HPLC using an Agilent Infinity II 1260 HPLC to determine reaction completion and radiochemical purity of [^177Lu]Lu-chelator-peptides. HPLC conditions: Waters XBridge BEH C18 Column, 130A, 3.5 μm, 4.6 mm×250 mm; mobile phase: Solvent A=water (with 0.1% formic acid), solvent B=acetonitrile (with 0.1% formic acid). Gradients: 25-45% B in 10 minutes, 45-65% B in 12 minutes, 65-90% in 6 minutes at a flow rate of 0.5 mL/minutes Required amounts of the product was formulated in 1% PBSA for cell studies.
(§2) The study was conducted using SHP-77, CT26.WT, CT26.DLL3, and HEK293.DLL3 cells (Table 9)
(§3) Adherent cell studies: The cells were cultured in appropriate culture media (20 mL) in tissue culture treated T150 flasks at 37° C. and 5% C02. Adherent cells were detached (60-70% confluent) using 5 mL Versene at 37° C. for 3 minutes. After confirming the viability using countess and count of detached cells using Trypan blue, the cells were centrifuged at 4° C. for 5 minutes (1,000 rpm). The cell pellet obtained was washed once with PBS and resuspended in 1% PBSA to obtain the desired cell concentration (5-25 million cells/mL).
as §3, with “Suspension” for “Adherent”, “CO2.” for “C02. Adherent cells were detached (60-70% confluent) using 5 mL Versene at 37° C. for 3 minutes.”, “viability” for “viability using countess”
(§4) Cell numbers used for the assay were in the range of 5 million cells/condition-25 million cells/condition.
Total uptake: Cells were incubated with 300 μL (0.8 μCi) of the incubation buffer (containing radiolabeled peptide [^177Lu]Lu-test peptide) for 1 hour at 37° C. (Table 10). Post incubation, the cells were pelleted and washed 2 times using cold PBS+1% BSA. The supernatant and washes were combined and counted together as “unbound fraction” in a gamma counter. The cells were then resuspended in 300 μL of 1% PBS+1% BSA and counted in the gamma counter as “bound fraction”.
(§5) In these Tables, “A” represents % s ≤25; “B” represents 25 <% ≤50; “C” represents % >50.

CT26.DLL3 cells [3] = test: Internalization of [177Lu]Lu-labeled peptide, CT26.DLL3 cells; format: cell-based; conditions: 1 h, 37° C.
How it was run: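 [177Lu]Lu-chelator-peptides labelled at pH ~5, 80 °C, checked by RP-HPLC, formulated in 1% PBSA. Detached cells (5-25 million/condition) counted as bound fraction, stripped twice with 50 mM glycine pH 2.5 for 3 min, lysed in 0.3 M NaOH and gamma-counted as internalized fraction; values binned as ≤25, 25-50, >50 %.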

SHP-77 cells [4] = test: Internalization of [177Lu]Lu-labeled peptide, SHP-77 cells; format: cell-based; conditions: 1 h, 37° C.
Procedure: as §1, §2, §3
as §3, with “Suspension” for “Adherent”, “CO2.” for “C02. Adherent cells were detached (60-70% confluent) using 5 mL Versene at 37° C. for 3 minutes.”, “viability” for “viability using countess”
as §4
Internalization: The resuspended cells in 300 μL of 1% PBSA and counted in the gamma counter as “bound fraction” were collected in 1.5 mL Eppendorf tube and pelleted. The pelleted cells were incubated with 300 μL of 50 mM Glycine pH=2.5 for 3 minutes and then pelleted discarding the supernatant. This process was repeated one more time. The pelleted cells were washed with 300 μL of cold 1% PBSA and then resuspended in 300 μl 0.3M NaOH. This was counted in the gamma counter as “internalized fraction”.
as §5

[5] = system: nude mice bearing SHP-77 tumors; test: Ex vivo biodistribution of radiolabeled peptides (% IA/g) in nude mice bearing SHP-77 tumors; conditions: [177Lu]Lu labelling, 24 hours post-injection, intravenous
How it was run: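 [177Lu]Lu-peptides were given as an IV tail-vein bolus once tumors reached 200-400 mm^3. Injected activity was set per mouse from syringe dose-calibrator readings. At set time points, tissues were weighed and gamma-counted, and counts were decay-corrected to injection and expressed as % IA/g.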

DLL3 on SHP-77 cells = molecular target: T2, DLL3 on SHP-77 cells (human, UniProt Q9NYJ7 27-618); test: [177Lu]Lu-labelled peptide on SHP-77 cells, 1 h 37 C, gamma counter; C = %>50
T2 construct: SHP-77 cells are human-derived, non-engineered SCLC cells
T2 sequence: T1 sequence (Q9NYJ7 27-618)

DLL3 on CT26.DLL3 cells = molecular target: T3, DLL3 on CT26.DLL3 cells (Homo sapiens (Human), UniProt Q9NYJ7 27-618); test: [177Lu]Lu-labelled peptide on CT26.DLL3 cells, 1 h 37 C, gamma counter; A = %<=25
T3 construct: CT26.DLL3 are engineered cells to express DLL3
T3 sequence: T1 sequence (Q9NYJ7 27-618)
Procedure: as §3
Total uptake: Cells were incubated with 300 μL (0.8 μCi) of the incubation buffer (containing radiolabeled peptide [¹⁷⁷Lu]Lu-test peptide) for 1 hour at 37° C. (Table 10). Post incubation, the cells were pelleted and washed 2 times using cold PBS+1% BSA. The supernatant and washes were combined and counted together as “unbound fraction” in a gamma counter. The cells were then resuspended in 300 μL of 1% PBS+1% BSA and counted in the gamma counter as “bound fraction”.

[6] = molecular target: DLL3 on CT26.DLL3 cells (Homo sapiens (Human)) (UniProt Q9NYJ7); test: [177Lu]Lu-labelled peptide on CT26.DLL3 cells, 1 h 37 C, gamma counter; B = 25<%<=50

Molecule: Ac-WT[tBuAla]CNN[2Nal]K(DOTA)DCWP-NH2 (disulfide 4-10) [Cpd No. 316]
% Binding (DLL3 on CT26.DLL3 cells): ≤ 25%

Molecule: Ac-WT[NMeNle]C[Ala(piperidin-4-yl)]N[2Nal]K(DOTA)DCWP-NH2 (disulfide 4-10) [Cpd No. 300]
% Binding [6]: > 25% and < 50%

Molecule: Ac-WT[NMetBuAla]C[Ala(piperidin-4-yl)]N[2Nal]K(DOTA)DCWP-OH (linker 4-10 via CH2) [Cpd No. 442]
% Binding (DLL3 on SHP-77 cells): > 50%

B1: Cpd No. 315 (peptide)
peptide: Ac-WT[Tle]CNN[2Nal]K(DOTA)DCWP-NH2
modifications: disulfide 4-10
SMILES: CC(=O)N[C@@H](Cc1c[nH]c2ccccc12)C(=O)N[C@H](C(=O)N[C@H](C(=O)N[C@H]1CSSC[C@@H](C(=O)N[C@@H](Cc2c[nH]c3ccccc23)C(=O)N2CCC[C@H]2C(N)=O)NC(=O)[C@H](CC(=O)O)NC(=O)[C@H](CCCCNC(=O)CN2CCN(CC(=O)O)CCN(CC(=O)O)CCN(CC(=O)O)CC2)NC(=O)[C@H](Cc2ccc3ccccc3c2)NC(=O)[C@H](CC(N)=O)NC(=O)[C@H](CC(N)=O)NC1=O)C(C)(C)C)[C@@H](C)O
% Binding (DLL3 on CT26.DLL3 cells): ≤ 25%

Now from value to molecule, other results behind:

Kd (DLL3): < 1 nM
kidney uptake (% IA/g) [5]: D (“D” represents % IA/g > 10 in kidney)
Molecule: CC(=O)N[C@@H](Cc1c[nH]c2ccccc12)C(=O)N[C@H](C(=O)N[C@@H](CC1CCCCC1)C(=O)N[C@H]1CSSC[C@@H](C(=O)N[C@@H](Cc2c[nH]c3ccccc23)C(=O)N2CCC[C@H]2C(N)=O)NC(=O)[C@H](CC(=O)O)NC(=O)[C@H](CCCCNC(=O)CN2CCN(CC(=O)O)CCN(CC(=O)O)CCN(CC(=O)O)CC2)NC(=O)[C@H](Cc2ccc3ccccc3c2)NC(=O)[C@H](CC(N)=O)NC(=O)[C@H](CC(N)=O)NC1=O)[C@@H](C)O [compound 323, Ac-W-T-(CHA)-C(3)-N-N-(2Nal)-Lys(DOTA)-D-C(3)-W-P-CONH2] (Ac-WT[Cha]CNN[2Nal]K(DOTA)DCWP-NH2; disulfide 4-10)
% Binding (CT26.DLL3 cells [1]): A (% s ≤25)
% Binding (SHP-77 cells [2]): A (% s ≤25)
% Internalization (out of bound fraction) (CT26.DLL3 cells [3]): C (% >50)
% Internalization (out of bound fraction) (SHP-77 cells [4]): B (25 <% ≤50)
tumor uptake (% IA/g) [5]: A (“A” represents 0 < % IA/g ≤ 5 in tumor)

% Binding (DLL3 on SHP-77 cells): > 50%
Molecule: Ac-WT[NMetBuAla]C[Ala(1-CH2CO2H-4-piperidyl)]N[2Nal]K(DOTA)DCWP-NH2 (linker 4-10 via CH2) [Cpd No. 447]

% Binding (DLL3 on SHP-77 cells): > 50%
Molecule: Ac-WT[NMetBuAla]C[Ala(piperidin-4-yl)]N[2Nal]K(DOTA)DCWP[dK]-NH2 (bridge 4-10; not fully specified (residue 13)) [Cpd No. 445]
